Reference: patent US10638779B2, “Hemiacetyl proflavors” (FIRMENICH SA, priority 2014, dated 2020)

How the values were obtained:
[1] = Assessment of hydrolysis rate at pH 3.0 (acetaldehyde release, UV/Vis 276 nm); format: physicochemical; conditions: for Acetaldehyde release rate relative to Comparative Samples 2-5: pH 3.0; for Half life (s) at pH 3.0 / half-life: pH 3.0 citrate buffer, stirring at 200 rpm, first order release of acetaldehyde, measured for this work; for half-life: read-out: Half life (s) at pH 3.0 (converted)
Description: Assessment of Hydrolysis Rate at pH 3.0
Instant beverage applications require rapid hydrolysis of the precursor molecules in order to rapidly release acetaldehyde. Because such beverages might be consumed immediately upon preparation, it is desired for the release to be as rapid as possible.
A pH 3.0 buffer solution was prepared by adding 16.43 g citric acid (CAS 77-92-9) and 4.26 g disodium citrate (CAS 144-33-2) to 1 L of deionized water. Aliquots of the Examples 1, 2 and 10 preparations were added to the buffer solution within a Distek 2100B USP 2 dissolution system stirring at 200 rpm. The concentration of acetaldehyde in solution was monitored as a function of time using a UV/Vis spectrometer probe which measured absorbance at 276 nm every 1 second. Results for comparative samples were taken from work by Gassenmeier et al.. A sample of acetaldehyde diethyl acetal was also measured directly and the result was similar to that reported by Gassenmeier et al. Examples 1, 2 and 10 released acetaldehyde faster than Comparative Samples 2-5.

[2] = Assessment of hydrolysis rate under spray drying feed conditions (pH 8.0 buffer/limonene emulsion); format: physicochemical; conditions: for t50 at pH 8.0 (time to 50% of the maximum absorbance): pH 8.0 phosphate buffer, 0.20 g in 0.8 g limonene added to 10 g buffer (emulsion); for t50 values relative to Comparative Sample 1: pH 8.0 emulsion
Description: Assessment of Hydrolysis Rate Under Spray Driving Feed Conditions
Acetaldehyde precursors suitable for rendering into dry powders must avoid releasing significant levels of acetaldehyde during various stages of processing. In particular they should resist hydrolysis during the preparation of a spray drying feed emulsion, which can be neutral to basic pH and can contain a significant volume fraction of an oil phase.
A pH 8.0 buffer solution was prepared by adding 49.92 g disodium phosphate heptahydrate (CAS 7782-85-6) and 1.93 g monosodium phosphate (CAS 7558-80-7) to 1 L of deionised water. Aliquots of 0.20 g of the Examples 1, 2 and 10 preparations were dissolved in 0.8 g of limonene (CAS 5989-25-7) added to 10 g of the buffer solution within a 30 mL Erlenmeyer flask containing a stir bar. The concentration of acetaldehyde in solution was monitored as a function of time using a UV/Vis spectrometer probe measuring absorbance at 276 nm. Stirring was periodically stopped to allow oil droplets to rise to the surface and collect an unobscured absorbance reading of the aqueous solution. Release followed mixed zero and first order kinetics. t50 (the time to 50% of the maximum absorbance) values are reported in Table 2. Comparative Sample 1 has t50 of 2.1 minutes, which is so short that a person skilled in the art would consider this compound at risk of experiencing a problematic degree of hydrolysis during processing.

Row | Acetaldehyde release rate relative to Comparative Samples 2-5 [1] | Half life (s) at pH 3.0 [1] [s] | t50 at pH 8.0 (time to 50% of the maximum absorbance) [2] [min] | half-life [1] [s] | t50 values relative to Comparative Sample 1 [2] | SMILES
1 | faster | 31 | 2.1 | – | – | CCOC(C)OC(C)=O (stereo not drawn) [Example 10, 1-ethoxyethyl acetate, reference compound]
2 | faster | – | 44.6 | 185 | longer | CCOC(C)OC(=O)CCCCC(=O)OC(C)OCC (stereo not drawn) [Example 2, Bis(1-ethoxyethyl) adipate]
3 | faster | – | 14.0 | 96 | longer | CCOC(C)OC(=O)CCC(=O)OC(C)OCC (stereo not drawn) [Example 1, Bis(1-ethoxyethyl) succinate]
4 | – | 539 | – | – | – | CCOC(C)OCC [Comparative Sample 2, Acetaldehyde diethyl acetal, reference compound]
